Experimental data as given in ChEMBL document CHEMBL3872247, “Discovery of dual positive allosteric modulators (PAMs) of the metabotropic glutamate 2 receptor and CysLT1 antagonists for treating migraine headache” (Bioorg Med Chem Lett, 2017).
pEC50, pIC50, pKi: −log10 of the molar value.

Assays:
[1] = molecular target: 5-hydroxytryptamine receptor 2B (Homo sapiens, UniProt P41595); test: Activity at human 5T2B receptor
[2] = molecular target: Muscarinic acetylcholine receptor (Rattus norvegicus) (UniProt P08482+P08483+P08485+P08911+P10980); test: Displacement of [3H]QNB from non-selective muscarinic receptor in rat cerebral cortex at 10 uM measured after 120 mins by scintillation counting method
[3] = molecular target: 5-hydroxytryptamine receptor 5A (Homo sapiens, UniProt P47898); test: Displacement of human 5HT5A receptor expressed in HEK293 cells after 120 mins by scintillation counting method; format: cell-based
[4] = molecular target: T1, Metabotropic glutamate receptor 2 (Homo sapiens, UniProt Q14416); test: Positive allosteric modulation of recombinant human mGlu2 receptor expressed in hamster AV12 cells expressing EAAT1 assessed as potentiation of glutamate-induced intracellular calcium level measured after 24 to 48 hrs by FLIPR assay; format: functional, cell-based
Target sequence in this assay (Q14416 whole entry): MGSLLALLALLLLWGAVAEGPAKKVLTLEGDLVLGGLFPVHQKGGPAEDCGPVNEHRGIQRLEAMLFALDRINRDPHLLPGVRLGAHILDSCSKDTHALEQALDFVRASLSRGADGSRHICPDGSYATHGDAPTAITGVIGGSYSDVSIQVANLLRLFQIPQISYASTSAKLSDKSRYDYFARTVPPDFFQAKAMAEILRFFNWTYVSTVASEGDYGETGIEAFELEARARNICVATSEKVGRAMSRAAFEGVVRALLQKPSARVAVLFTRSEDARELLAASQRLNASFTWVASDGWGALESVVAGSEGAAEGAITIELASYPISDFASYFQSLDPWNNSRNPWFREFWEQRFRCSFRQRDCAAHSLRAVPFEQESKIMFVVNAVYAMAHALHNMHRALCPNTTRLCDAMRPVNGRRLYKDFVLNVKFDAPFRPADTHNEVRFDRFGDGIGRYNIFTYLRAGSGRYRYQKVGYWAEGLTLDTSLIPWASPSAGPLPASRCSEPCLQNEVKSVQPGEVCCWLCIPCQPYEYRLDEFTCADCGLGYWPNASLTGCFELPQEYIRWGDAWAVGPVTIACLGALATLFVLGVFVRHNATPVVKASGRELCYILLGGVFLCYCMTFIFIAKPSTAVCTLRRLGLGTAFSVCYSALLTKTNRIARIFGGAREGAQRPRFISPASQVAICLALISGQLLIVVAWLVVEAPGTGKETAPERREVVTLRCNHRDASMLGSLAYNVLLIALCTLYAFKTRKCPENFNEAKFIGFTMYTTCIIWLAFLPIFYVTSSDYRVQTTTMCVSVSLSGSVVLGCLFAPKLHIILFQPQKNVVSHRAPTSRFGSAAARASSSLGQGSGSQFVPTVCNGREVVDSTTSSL

[5] = molecular target: Beta-1 adrenergic receptor (Homo sapiens) (UniProt P08588); test: Displacement of [3H](-)CGP12177 from recombinant human beta1 adrenergic receptor expressed in HEK293 cells at 10 uM measured after 60 mins by scintillation counting method; format: cell-based
Chain of Beta-1 adrenergic receptor (Homo sapiens) (P08588 whole entry, looked up): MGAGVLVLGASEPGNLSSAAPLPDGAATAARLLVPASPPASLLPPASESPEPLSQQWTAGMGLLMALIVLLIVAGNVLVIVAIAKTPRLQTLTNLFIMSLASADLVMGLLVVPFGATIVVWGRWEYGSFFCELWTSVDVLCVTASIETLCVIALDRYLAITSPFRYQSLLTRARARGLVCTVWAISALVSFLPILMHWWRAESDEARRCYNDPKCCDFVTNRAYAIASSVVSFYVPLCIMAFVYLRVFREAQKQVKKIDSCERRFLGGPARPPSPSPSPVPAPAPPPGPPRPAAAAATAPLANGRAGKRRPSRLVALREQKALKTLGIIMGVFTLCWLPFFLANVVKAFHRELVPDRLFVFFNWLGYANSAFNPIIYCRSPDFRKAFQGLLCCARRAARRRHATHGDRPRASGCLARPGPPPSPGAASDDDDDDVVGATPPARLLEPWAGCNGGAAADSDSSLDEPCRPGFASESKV

[6] = molecular target: T2, Metabotropic glutamate receptor 5 (Homo sapiens, UniProt P41594); test: Agonist activity at recombinant human mGlu5 expressed in hamster AV12 cells expressing EAAT1 assessed as increase in intracellular calcium level measured after 24 hrs by FLIPR assay; format: functional, cell-based
T2 sequence (P41594 whole entry): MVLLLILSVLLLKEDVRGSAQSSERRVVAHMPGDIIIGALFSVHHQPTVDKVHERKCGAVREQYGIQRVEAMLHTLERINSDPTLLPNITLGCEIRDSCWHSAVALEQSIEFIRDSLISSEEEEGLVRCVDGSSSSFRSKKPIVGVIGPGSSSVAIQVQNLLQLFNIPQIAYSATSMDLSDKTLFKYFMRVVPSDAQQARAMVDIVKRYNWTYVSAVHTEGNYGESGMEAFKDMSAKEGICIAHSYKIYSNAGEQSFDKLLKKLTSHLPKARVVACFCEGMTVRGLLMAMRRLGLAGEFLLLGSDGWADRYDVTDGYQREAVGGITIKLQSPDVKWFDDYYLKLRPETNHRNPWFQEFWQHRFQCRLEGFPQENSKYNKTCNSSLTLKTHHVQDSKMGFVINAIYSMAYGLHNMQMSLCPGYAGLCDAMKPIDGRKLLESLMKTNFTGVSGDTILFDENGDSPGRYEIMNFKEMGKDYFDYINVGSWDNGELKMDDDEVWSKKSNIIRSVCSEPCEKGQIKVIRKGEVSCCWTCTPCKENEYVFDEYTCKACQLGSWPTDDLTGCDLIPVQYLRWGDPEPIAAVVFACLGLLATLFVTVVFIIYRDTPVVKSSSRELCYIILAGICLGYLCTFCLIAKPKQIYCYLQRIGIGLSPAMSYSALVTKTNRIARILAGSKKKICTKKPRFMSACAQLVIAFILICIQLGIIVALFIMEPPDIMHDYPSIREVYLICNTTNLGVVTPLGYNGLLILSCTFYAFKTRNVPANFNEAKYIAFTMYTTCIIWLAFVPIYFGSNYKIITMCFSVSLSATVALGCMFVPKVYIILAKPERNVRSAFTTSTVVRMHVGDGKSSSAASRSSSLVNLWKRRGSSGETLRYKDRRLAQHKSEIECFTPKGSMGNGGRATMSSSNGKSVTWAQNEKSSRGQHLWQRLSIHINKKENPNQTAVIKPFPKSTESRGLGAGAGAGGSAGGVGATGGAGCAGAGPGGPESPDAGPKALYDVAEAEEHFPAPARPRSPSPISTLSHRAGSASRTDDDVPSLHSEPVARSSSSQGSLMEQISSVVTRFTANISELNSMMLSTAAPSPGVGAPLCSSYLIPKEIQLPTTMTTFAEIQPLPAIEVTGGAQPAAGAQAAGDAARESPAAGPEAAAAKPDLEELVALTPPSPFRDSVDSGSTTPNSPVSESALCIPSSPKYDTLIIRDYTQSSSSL

[7] = molecular target: T1, Metabotropic glutamate receptor 2; test: Agonist activity at recombinant human mGlu2 receptor expressed in hamster AV12 cells expressing EAAT1 assessed as increase in intracellular calcium level measured after 24 to 48 hrs by FLIPR assay; format: functional, cell-based
Target sequence in this assay (Q14416 whole entry): as the sequence (Q14416 whole entry) above

[8] = Half life in rat at 1 mg/kg, iv; format: ADME, organism-based; conditions: in vivo
[9] = Ratio of drug level in brain to plasma in rat at 15 mg/kg, po; format: ADME, organism-based
[10] = molecular target: T2, Metabotropic glutamate receptor 5; test: Antagonist activity at recombinant human mGlu5 receptor expressed in hamster AV12 cells expressing EAAT1 assessed as inhibition of glutamate-induced intracellular Ca2+ level measured after 24 hrs by FLIPR assay; format: functional, cell-based
[11] = molecular target: Metabotropic glutamate receptor 8 (Homo sapiens) (UniProt O00222); test: Positive allosteric modulation of recombinant human mGlu8 expressed in hamster AV12 cells expressing EAAT1 assessed as potentiation of glutamate-induced intracellular Ca2+ level at 20 uM after 24 hrs by FLIPR assay; format: functional, cell-based
[12] = molecular target: 5-hydroxytryptamine receptor 7 (Homo sapiens, UniProt P34969); test: Displacement of [3H]LSD from human 5HT7 receptor expressed in CHO cells after 120 mins by scintillation counting method; format: cell-based
Chain of 5-hydroxytryptamine receptor 7 (P34969 whole entry): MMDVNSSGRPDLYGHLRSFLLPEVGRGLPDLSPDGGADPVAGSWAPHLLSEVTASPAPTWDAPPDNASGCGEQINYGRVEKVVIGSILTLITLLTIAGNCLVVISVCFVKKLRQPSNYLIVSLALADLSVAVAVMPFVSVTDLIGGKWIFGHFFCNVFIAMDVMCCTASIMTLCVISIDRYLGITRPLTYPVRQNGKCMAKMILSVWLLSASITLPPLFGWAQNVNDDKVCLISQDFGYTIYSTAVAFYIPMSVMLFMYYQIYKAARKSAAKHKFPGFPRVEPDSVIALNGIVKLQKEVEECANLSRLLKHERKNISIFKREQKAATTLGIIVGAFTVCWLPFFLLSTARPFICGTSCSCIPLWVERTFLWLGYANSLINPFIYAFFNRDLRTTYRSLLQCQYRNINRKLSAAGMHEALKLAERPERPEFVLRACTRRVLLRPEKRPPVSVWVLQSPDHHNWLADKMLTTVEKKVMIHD

[13] = Clearance in dog at 0.5 mg/kg, iv; format: ADME, organism-based, Canis lupus familiaris; conditions: in vivo
[14] = Clearance in rat at 1 mg/kg, iv; format: ADME, organism-based; conditions: in vivo
[15] = Cmax in dog at 1 mg/kg, po; format: ADME, organism-based, Canis lupus familiaris; parameters: dose 1 mg/kg, route oral; conditions: in vivo
Rattus norvegicus [16] = species: Rattus norvegicus; test: Displacement of [3H]D888 from L-type calcium channel verapamil binding site in rat cerebral cortex at 10 uM measured after 120 mins by scintillation counting method
[17] = molecular target: Histamine H2 receptor (Homo sapiens) (UniProt P25021); test: Displacement of [125I]APT from recombinant human histamine H2 receptor expressed in HEK293 cells at 10 uM measured after 120 mins by scintillation counting method; format: cell-based
Chain of Histamine H2 receptor (Homo sapiens) (P25021 whole entry): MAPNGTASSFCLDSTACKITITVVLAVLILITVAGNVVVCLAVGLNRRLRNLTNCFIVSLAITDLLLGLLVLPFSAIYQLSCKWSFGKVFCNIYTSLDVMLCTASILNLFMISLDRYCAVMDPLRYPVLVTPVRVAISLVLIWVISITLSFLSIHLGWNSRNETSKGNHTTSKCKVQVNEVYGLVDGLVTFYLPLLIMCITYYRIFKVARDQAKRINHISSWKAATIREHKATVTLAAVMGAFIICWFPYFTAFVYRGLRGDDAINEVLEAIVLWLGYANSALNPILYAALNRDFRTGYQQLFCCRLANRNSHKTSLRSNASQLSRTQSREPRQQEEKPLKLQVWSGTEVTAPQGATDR

[18] = molecular target: T1, Metabotropic glutamate receptor 2; test: Antagonist activity at recombinant human mGlu2 receptor expressed in hamster AV12 cells expressing EAAT1 assessed as inhibition of glutamate-induced increase in intracellular Ca2+ level measured after 24 to 48 hrs by FLIPR assay; format: functional, cell-based
Target sequence in this assay (Q14416 whole entry): as the sequence (Q14416 whole entry) above

[19] = molecular target: 5-hydroxytryptamine receptor 2C (Homo sapiens, UniProt P28335); test: Activity at human 5T2C receptor
Chain of 5-hydroxytryptamine receptor 2C (P28335 whole entry): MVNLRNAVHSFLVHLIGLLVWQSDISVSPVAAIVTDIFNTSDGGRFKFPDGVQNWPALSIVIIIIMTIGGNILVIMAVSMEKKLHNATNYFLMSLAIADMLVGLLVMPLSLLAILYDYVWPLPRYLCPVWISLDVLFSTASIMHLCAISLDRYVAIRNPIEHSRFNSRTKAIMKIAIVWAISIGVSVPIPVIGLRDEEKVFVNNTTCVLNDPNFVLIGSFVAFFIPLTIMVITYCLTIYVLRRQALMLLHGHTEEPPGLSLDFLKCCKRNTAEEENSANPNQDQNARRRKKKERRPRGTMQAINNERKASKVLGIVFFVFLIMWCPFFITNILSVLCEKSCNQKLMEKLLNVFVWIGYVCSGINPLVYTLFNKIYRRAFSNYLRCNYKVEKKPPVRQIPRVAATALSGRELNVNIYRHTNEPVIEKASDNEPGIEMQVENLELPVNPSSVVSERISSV

[20] = molecular target: T1, Metabotropic glutamate receptor 2; test: Positive allosteric modulation of recombinant human mGlu2 receptor expressed in hamster AV12 cells expressing EAAT1 assessed as potentiation of glutamate-induced intracellular calcium level measured after 24 to 48 hrs by FLIPR assay relative to glutamate; format: functional, cell-based
[21] = molecular target: Metabotropic glutamate receptor 1 (Homo sapiens, UniProt Q13255); test: Agonist activity at recombinant human mGlu1 expressed in hamster AV12 cells expressing EAAT1 assessed as increase in intracellular calcium level measured after 24 hrs by FLIPR assay; format: functional, cell-based
[22] = molecular target: 5-hydroxytryptamine receptor 2A (Homo sapiens, UniProt P28223); test: Activity at human 5HT2A receptor
Rattus norvegicus [23] = species: Rattus norvegicus; test: Displacement of [3H]naloxone from opioid receptor in rat cerebral cortex at 10 uM measured after 40 mins by scintillation counting method
[24] = Ratio of Cmax in rat to EC50 for human CysLT1 expressed in Syrian hamster AV12-664 cells
[25] = molecular target: Metabotropic glutamate receptor 3 (Homo sapiens, UniProt Q14832); test: Positive allosteric modulation of recombinant human mGlu3 expressed in hamster AV12 cells expressing EAAT1 assessed as potentiation of glutamate-induced intracellular Ca2+ level measured after 24 hrs by FLIPR assay; format: functional, cell-based
Chain of Metabotropic glutamate receptor 3 (Q14832 whole entry): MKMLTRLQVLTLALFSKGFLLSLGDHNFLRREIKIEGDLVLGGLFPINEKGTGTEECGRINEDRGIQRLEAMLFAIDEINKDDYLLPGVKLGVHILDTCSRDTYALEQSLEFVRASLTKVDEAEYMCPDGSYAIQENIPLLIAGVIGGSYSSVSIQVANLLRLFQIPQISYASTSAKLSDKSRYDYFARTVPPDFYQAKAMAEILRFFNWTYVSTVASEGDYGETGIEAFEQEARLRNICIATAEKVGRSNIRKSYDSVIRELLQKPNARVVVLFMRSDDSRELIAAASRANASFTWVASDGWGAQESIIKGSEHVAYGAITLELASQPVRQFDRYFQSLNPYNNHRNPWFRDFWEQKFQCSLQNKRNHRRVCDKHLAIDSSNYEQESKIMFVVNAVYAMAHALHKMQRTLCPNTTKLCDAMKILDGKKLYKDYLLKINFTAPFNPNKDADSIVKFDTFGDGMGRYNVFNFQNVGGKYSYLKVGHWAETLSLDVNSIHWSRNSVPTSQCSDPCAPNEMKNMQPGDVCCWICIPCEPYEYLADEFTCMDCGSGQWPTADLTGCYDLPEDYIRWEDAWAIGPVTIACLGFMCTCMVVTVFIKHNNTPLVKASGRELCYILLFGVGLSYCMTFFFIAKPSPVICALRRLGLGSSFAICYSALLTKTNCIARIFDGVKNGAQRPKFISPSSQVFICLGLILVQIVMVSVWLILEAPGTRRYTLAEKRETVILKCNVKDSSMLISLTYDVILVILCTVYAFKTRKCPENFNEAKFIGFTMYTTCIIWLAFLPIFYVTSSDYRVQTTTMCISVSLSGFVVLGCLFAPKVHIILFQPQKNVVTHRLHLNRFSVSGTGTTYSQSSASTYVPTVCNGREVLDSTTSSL

[26] = Oral bioavailability in rat at 1 mg/kg; format: ADME, organism-based; conditions: in vivo
[27] = Volume of distribution in rat at 1 mg/kg, iv; format: ADME, organism-based; conditions: in vivo
[28] = Cmax in dog at 0.5 mg/kg, iv; format: ADME, organism-based, Canis lupus familiaris; parameters: dose 0.5 mg/kg, route intravenous; conditions: in vivo

CC(=O)c1ccc(OCc2ccc(Oc3cc(-c4nn[nH]n4)ccn3)cc2)c(C)c1O
pKi [1]: < 5.48
inhibition [2]: 22.9%
pKi [3]: < 5.16
pEC50 [4]: 6.54 to 6.70
inhibition [5]: 5.1%
pEC50 [6]: < 4.60
pEC50 [7]: < 4.60
half-life [8]: 2 h
BPR [9]: < 1%
pIC50 [10]: < 4.90
Activity [11]: < 20%
pKi [12]: < 5.40
clearance [13]: 0.72 L/h/kg
clearance [14]: 0.66 L/h/kg
Cmax [15]: 0.143 µg/mL
inhibition (Rattus norvegicus [16]): 63.1%
inhibition [17]: 10.2%
pIC50 [18]: < 4.90
pKi [19]: < 5.10
Emax [20]: 107%
pEC50 [21]: < 4.60
pKi [22]: < 5.13
inhibition (Rattus norvegicus [23]): 15.1%
Ratio [24]: 7.8
pEC50 [25]: < 4.90
bioavailability [26]: 39%
Vd [27]: 2 L/kg
Cmax [28]: 2.54 µg/mL
